System: F. graminearum 3ADON (high toxin producing strain)
Format: cell-based, Fusarium graminearum

## CC(/C=C/[C@@]1(C)[C@H](C)CCC(=O)[C@@H]1C)=C\Cc1c(O)cc(C)c(C=O)c1O [cylindrol B, 4-dihydroxy-6-methyl-3-[(2E,4E)-3-methyl-5-[(1R,2R,6R)-1,2,6-trimethyl-3-oxocyclohexyl]penta-2,4-dienyl]benzaldehyde]
  clearing of fungus around the well: showed a clearing of fungus around the well

Reference: patent publication US11470793B2, “Bacterial strain having anti-fungal properties and uses thereof” (Kontzamanis Graumann Smith MacMillan Inc., priority 2019, dated 2022)
